# Test results from patent US12351559B2 (Biohaven Therapeutics Ltd., priority 2014, dated 2025).
# Biological target: T1, Kv7.2/7.3 (Homo sapiens, UniProt O43525+O43526)
# T1 construct: host or cells: HEK cells, tetracycline-inducible expression
# Test: Kv7.2/7.3 activation assay, QPatch planar patch-clamp, single concentration screen
# Assay type: cell-based
# Set-up: key: <1.2-fold increase over baseline (−); +/−: as a range from <1.2-fold increase over baseline (−) up to >6-fold increase over baseline (+++); as a range from <1.2-fold increase over baseline (−) up to >6-fold increase over baseline (+++); as a range from <1.2-fold increase over baseline (−) up to >6-fold increase over baseline (+++); >6-fold increase over baseline (+++)
# Conditions: Kv7.2/Kv7.3 co-expressing HEK cells, compound 3 μM, steady-state current at end of 2 s pulse to −30 mV
# Description: The ability of compounds to potentiate K-currents in Kv7.2/7.3 containing HEK cells was assessed using planar patch-clamp on the QPatch automated screening platform.
# Cell Line: The hKv7.2/7.3 cell line was obtained from Chantest (Cleveland, OH 44128) cat. #CT6147. These HEK cells will express the Kv7.2/7.3 ion channels when induced.
# Cell Culture: Cells were maintained in a media containing DMEM/F12; 50/50 (GIBCO cat. #11330), 10% Fetal Bovine Serum (FBS) (GIBCO cat. #26140), 100 units/mL Penicillin-Streptomycin (GIBCO cat. #15140), 0.005 mg/mL Blasticidin (INVIVOGEN cat. #ant-bl-1), 0.5 mg/mL Geneticin (GIBCO cat. #10131), 0.1 mg/ml Zeocin (GIBCO cat. #R25001). Cells used in the electrophysiology assay were maintained in a media without Blasticidin, Geneticin and Zeocin for 2 days and channel expression was induced by adding tetracycline (BIOLINE cat. #BIO-87030) at a final concentration of 1 mg/mL. Cells were grown in T-175 flask to ˜75% confluency. Currents were recorded 24 hours after channel induction.
# Compound Plates: Test compounds were prepared by performing serial dilutions on a Biomek NX^P (BECKMAN COULTER). Final dilutions were made in external recording solution with a final DMSO concentration of 0.1% DMSO. For single concentration screens each plate had 10 μM retigabine as a positive control and 0.1% DMSO as a negative control.
# Electrophysiology: On the day of the experiment cells were washed with Hank's Balanced Salt Solution (HBBS) (GIBCO cat. #14175) and harvested with Tryple (GIBCO cat. #12604). Cells were then centrifuged at 2000 rpm for 5 minutes and resuspended in CHO-S-SFM (GIBCO cat. #12052) at ˜3×10^6 cells/mL. Cells were stirred for 30 minutes before experiments were started. External recording solution contained (in mM): NaCl (145), KCl (4), CaCl2 (2), MgCl2 (1), HEPES (10) and Glucose (10); pH was adjusted to 7.4 with NaOH and the osmolarity was adjusted to 300-305 mOsM with sucrose if necessary. Internal solution contained (in mM): KCl (125), KF (10), EGTA (5), Na2ATP (5), MgCl2 (3.2), HEPES (5); pH was adjusted to 7.2 with KOH and the osmolarity was adjusted to 298-302 mOsM with sucrose.
# Potassium channel activity was measured on the QPatch HTX (Sophion Bioscience) using QPlates with 48-wells/plate. Each cell was taken as an independent experiment and only one compound was tested per well. Potassium channel activity was elicited by holding at −80 mV and stepping to −30 mV for 2 s followed by a 100 ms pulse to −120 mV.
# Single concentration screen: Baseline conditions were obtained by recording 5 sweeps in the external solution only, this was repeated for three applications of the external solution. […] The steady-state current at the end of the 2 s pulse to −30 mV was measured to determine the fold increase from baseline.
row,Kv7.2/7.3 Activity: increase in current over baseline,SMILES
1,++,"CC(C)(O)c1ccc2nc(NC(=O)C3CC4(CCC4)C3)n(C3CCC3)c2c1 [Example 87, N-(1-cyclobutyl-6-(2-hydroxypropan-2-yl)-1H-benzo[d]imidazol-2-yl)spiro[3.3]heptane-2-carboxamide]"
2,+/−,"Cc1cc2nc(NC(=O)C[C@](C)(O)c3ccccc3)n(C(C)(C)C)c2cc1C#N [Example 119, (S)-N-(1-(tert-butyl)-6-cyano-5-methyl-1H-benzo[d]imidazol-2-yl)-3-hydroxy-3-phenylbutanamide]"
3,+/−,"CC(C)[C@H](C)C(=O)Nc1nc2ccc(C#N)cc2n1-c1ccc(F)cn1 [Example 73, (S)-N-(6-cyano-1-(5-fluoropyridin-2-yl)-1H-benzo[d]imidazol-2-yl)-2,3-dimethylbutanamide]"
4,+,"CC(C)[C@H](C)C(=O)Nc1nc2ccc(C(F)(F)F)cc2n1C1CCC1 [Example 36, (S)-N-(1-cyclobutyl-6-(trifluoromethyl)-1H-benzo[d]imidazol-2-yl)-2,3-dimethylbutanamide]"
5,++,"Cc1cc2nc(NC(=O)C[C@](C)(O)c3ccccc3F)n(C3CCC3)c2cc1C#N [Example 126, (S)-N-(6-cyano-1-cyclobutyl-5-methyl-1H-benzo[d]imidazol-2-yl)-3-(2-fluorophenyl)-3-hydroxybutanamide]"
6,+,"CC(C)[C@@H](C)C(=O)Nc1nc2ccc(C(F)(F)F)cc2n1C1CCC1 [Example 40, (R)-N-(1-cyclobutyl-6-(trifluoromethyl)-1H-benzo[d]imidazol-2-yl)-2,3-dimethylbutanamide]"
7,++,"O=C(CC1(O)CCC1)Nc1nc2ccc(C(F)(F)F)cc2n1-c1ccc(OC(F)(F)F)c(F)c1 [Example 145, N-(1-(3-fluoro-4-(trifluoromethoxy)phenyl)-6-(trifluoromethyl)-1H-benzo[d]imidazol-2-yl)-2-(1-hydroxycyclobutyl)acetamide]"
8,+/−,"CC(C)(O)[C@H]1C[C@@H]1C(=O)Nc1nc2ccc(C(F)(F)F)cc2n1C1CCC1 [Example 41, (1S,2S)-N-(1-cyclobutyl-6-(trifluoromethyl)-1H-benzo[d]imidazol-2-yl)-2-(2-hydroxypropan-2-yl)cyclopropane-1-carboxamide]"
9,++,"CC(C)(O)c1ccc2nc(NC(=O)[C@@H]3CC3(C)C)n(C3CCC3)c2c1 [Example 89, (R)-N-(1-cyclobutyl-6-(2-hydroxypropan-2-yl)-1H-benzo[d]imidazol-2-yl)-2,2-dimethylcyclopropane-1-carboxamide]"
10,+/−,"Cc1cc2nc(NC(=O)C[C@](C)(O)C(F)(F)F)n(C(C)(C)C)c2cc1C#N [Example 134, (S)-N-(1-(tert-butyl)-6-cyano-5-methyl-1H-benzo[d]imidazol-2-yl)-4,4,4-trifluoro-3-hydroxy-3-methylbutanamide]"
11,+,"C[C@H](C(=O)Nc1nc2ccc(C#N)cc2n1C1CCC1)[C@@](C)(O)c1ccccc1 [Example 18, (2S,3R)-N-(6-cyano-1-cyclobutyl-1H-benzo[d]imidazol-2-yl)-3-hydroxy-2-methyl-3-phenylbutanamide]"
12,+,"C[C@H](C(=O)Nc1nc2ccc(C#N)cc2n1C1CCC1)[C@](C)(O)c1ccccc1 [Example 19, (2S,3S)-N-(6-cyano-1-cyclobutyl-1H-benzo[d]imidazol-2-yl)-3-hydroxy-2-methyl-3-phenylbutanamide]"
13,+/−,"CC(C)(O)[C@H]1C[C@@H]1C(=O)Nc1nc2ccc(C#N)cc2n1C1CCC1 [Example 15, (1S,2S)-N-(6-cyano-1-cyclobutyl-1H-benzo[d]imidazol-2-yl)-2-(2-hydroxypropan-2-yl)cyclopropane-1-carboxamide]"
14,+/−,"Cc1cc2nc(NC(=O)C[C@](C)(O)c3ccccc3)n(C3CCC3)c2cc1C#N [Example 123, (S)-N-(6-cyano-1-cyclobutyl-5-methyl-1H-benzo[d]imidazol-2-yl)-3-hydroxy-3-phenylbutanamide]"
15,+,"Cc1cc(-n2c(NC(=O)[C@@H](C)C(C)C)nc3ccc(C(F)(F)F)cc32)on1 [Example 47, (S)-2,3-dimethyl-N-(1-(3-methylisoxazol-5-yl)-6-(trifluoromethyl)-1H-benzo[d]imidazol-2-yl)butanamide]"
16,+,"CC(C)[C@H](C)C(=O)Nc1nc2ccc(C#N)cc2n1-c1ccc(F)cc1 [Example 32, (S)-N-(6-cyano-1-(4-fluorophenyl)-1H-benzo[d]imidazol-2-yl)-2,3-dimethylbutanamide]"
17,+/−,"CC1(n2c(NC(=O)C[C@](C)(O)c3ccc(Cl)cc3)nc3ccc(C#N)cc32)CCC1 [Example 140, (S)-3-(4-chlorophenyl)-N-(6-cyano-1-(1-methylcyclobutyl)-1H-benzo[d]imidazol-2-yl)-3-hydroxybutanamide]"
18,+,CCC(O)c1ccc2nc(NC(=O)CC(C)(C)C)n(C3CCC3)c2c1 (stereo not drawn) [Example 57]
19,+/−,"CC(C)(C)C(=O)Nc1nc2ccc(C(C)(C)O)cc2n1C1CCC1 [Example 90, N-(1-cyclobutyl-6-(2-hydroxypropan-2-yl)-1H-benzo[d]imidazol-2-yl)pivalamide]"
20,+,"C[C@](O)(CC(=O)Nc1nc2ccc(C(F)(F)F)cc2n1C1CCC1)c1ccccc1 [Example 88, (S)-N-(1-cyclobutyl-6-(trifluoromethyl)-1H-benzo[d]imidazol-2-yl)-3-hydroxy-3-phenylbutanamide]"
21,+,"CC1(C)C[C@@H]1C(=O)Nc1nc2ccc(C#N)cc2n1-c1ccc(F)cc1 [Example 33, (S)-N-(6-cyano-1-(4-fluorophenyl)-1H-benzo[d]imidazol-2-yl)-2,2-dimethylcyclopropane-1-carboxamide]"
22,+,"Cc1cc2nc(NC(=O)C[C@](C)(O)c3ccc(F)cc3)n(C(C)(C)C)c2cc1C#N [Example 121, (S)-N-(1-(tert-butyl)-6-cyano-5-methyl-1H-benzo[d]imidazol-2-yl)-3-(4-fluorophenyl)-3-hydroxybutanamide]"
23,+,"Cc1cc(-n2c(NC(=O)CC(C)(C)C)nc3ccc(C(F)(F)F)cc32)on1 [Example 46, 3,3-dimethyl-N-(1-(3-methylisoxazol-5-yl)-6-(trifluoromethyl)-1H-benzo[d]imidazol-2-yl)butanamide]"
24,+,"O=C(CC1(O)CCC1)Nc1nc2ccc(Cl)cc2n1C1CCC1 [Example 62, N-(6-chloro-1-cyclobutyl-1H-benzo[d]imidazol-2-yl)-2-(1-hydroxycyclobutyl)acetamide]"
25,+,"CC(O)(CC(=O)Nc1nc2ccc(C#N)cc2n1C1CCC1)C1CCC1 (stereo not drawn) [Example 78, N-(6-cyano-1-cyclobutyl-1H-benzo[d]imidazol-2-yl)-3-cyclobutyl-3-hydroxybutanamide]"

row,SMILES,Kv7.2/7.3 Activity: increase in current over baseline
1,"CC(C)(C)CC(=O)Nc1nc2ccc(C#N)cc2n1C1CCC1 [Example 5, N-(6-cyano-1-cyclobutyl-1H-benzo[d]imidazol-2-yl)-3,3-dimethylbutanamide]",+++ (>6-fold increase over baseline (+++))
2,"COc1ccc2nc(NC(=O)CCC3CCCC3)n(C(C)C)c2c1 [Example 3, 3-cyclopentyl-N-(1-isopropyl-6-methoxy-1H-benzo[d]imidazol-2-yl)propanamide]",+++ (>6-fold increase over baseline (+++))
